From patent publication US8663607B2, “Ferrate(VI)-containing compositions and methods of using ferrate(VI)” (Battelle Memorial Institute, priority 2007, dated 2014)

Assays:
[1] = Thermal stability of K2FeO4, cycling temperature profile (AR 70-38); type: physicochemical; settings: cycling daily from 23° C. to 71° C. and back again
Experimental: The cycling temperature profile specified in AR 70-38 also was studied. An oven (Fisher Scientific model No. 48) was outfitted with a programmable temperature controller (Omega Engineering model CN3251) and a small fan in order to provide air circulation. Temperature data acquisition was performed using a HOBO data logger (Onset Computer Corp., model HTEA −39+123° C.). The temperature controller was programmed to meet the specifications of AR 70-38 Sec. II, Table 2-2 (Storage and Transit Conditions). Specifically, the oven was programmed to remain above 66° C. for at least 5 hrs and to reach a peak temperature of 71° C. for not more than 1 hr. The programmed parameters appear below in Table 1.

[2] = Treatment of unstained HAP disk (staining by the reagent itself); settings: disk D: unstained disk, 100 μL pH 7 HEPA buffer, 1.3 mg
Experimental: Tea staining Procedure: A calcium-deficient hydroxyapatite (HAP) disk (Clarkson Chromatography Products) was placed into a 50-mL centrifuge tube with 10 mL of tea solution. The centrifuge tube was gently shaken by hand for 15 minutes. The tea solution was decanted and replaced with 10 mL of HPDI water and vortexed for 30 seconds. The water was decanted and replaced with 10 additional mL of HPDI water and vortexed for 30 seconds. The disk was removed with forceps and patted dry with a tissue. The disk was allowed to air dry at room temperature for at least one hour.
(§1) Oxidation resistant chelating buffer: 0.25M 1-Hydroxyethylidenediphosphonic acid (etridonic acid) (Dequest® 2010, Thermphos) (HEPA) was pH adjusted by microtitration with 10N NaOH. 1.28 g of 1-Hydroxyethylidenediphosphonic acid was to a 25-mL volumetric flask and brought to volume with HPDI water. The solution was transferred to a 50-mL beaker with a stir bar and pH adjusted using 10.04N NaOH, monitored with a calibrated pH meter. Aliquat 336® (Cognis) (also suitable is Aliquat 134®) (N-methyl-tri-(n-octyl)ammonium chloride), (N-methyl TOA) or “HEPA” chelating pH Buffer: 2.5-μL of N-methyl TOA was added to 5 mL of pH 7 HEPA buffer and sonicated for 1 minute. pH 7 Sodium Dodecyl Sulfate (SDS)/HEPA Buffer: 10 mg of SDS was added to 5 mL of pH 7 HEPA buffer and sonicated for 1 minute. pH 8 SDS/HEPA Buffer: 10 mg of SDS was added to 5 mL of pH 8 HEPA buffer and sonicated for 1 minute.
• A. A tea stained disk was placed into the bowl of the bowl of a watch glass and 100 μL of pH 7 HEPA buffer was pipetted onto the disk surface. 3.7 mg of potassium ferrate(VI) was added to the disk surface and mixed gently. […] The disk was rinsed at 10 minutes with HPDI water. […] 1 mL of pH 7 HEPA buffer was added followed by 9 mL of HPDI water. 9.7 mg of potassium ferrate(VI) was added. The tube was gently hand shaken for 10 minutes. The disk was removed and rinsed with HPDI water. […] 10 mg of potassium ferrate(VI) was added to 1 mL of pH 7 HEPA buffer in a 50 mL centrifuge tube. 9 mL HPDI water was added, and the solution was shaken for a few seconds followed by the addition of a tea stained HAP disk. The disk was removed at 10 minutes and rinsed with HPDI water. […] 1.3 mg of potassium ferrate(VI) added and mixed into the solution. […] 1.4 mg of potassium ferrate(VI) was added to the disk surface and mixed gently. […] The reaction was allowed to continue for 5 minutes. […] The disk was rinsed several times with HPDI water. 100 μL of pH 7 HEPA buffer was pipetted onto the disk surface and allowed to react for 5 minutes.

[3] = Stain removal from HAP disk, grape juice stain; settings: disk A-4: grape juice stained disk treated the same way as P and Q (pH 8 SDS/HEPA buffer)
[4] = Stain removal from HAP disk, coffee stain; settings: disk A-6: coffee stained disk treated the same way as P and Q (pH 8 SDS/HEPA buffer)
Excerpt: as §1
• A. A tea stained disk was placed into the bowl of the bowl of a watch glass and 100 μL of pH 7 HEPA buffer was pipetted onto the disk surface. 3.7 mg of potassium ferrate(VI) was added to the disk surface and mixed gently. […] The disk was rinsed at 10 minutes with HPDI water. […] 1 mL of pH 7 HEPA buffer was added followed by 9 mL of HPDI water. 9.7 mg of potassium ferrate(VI) was added. The tube was gently hand shaken for 10 minutes. The disk was removed and rinsed with HPDI water. […] 10 mg of potassium ferrate(VI) was added to 1 mL of pH 7 HEPA buffer in a 50 mL centrifuge tube. 9 mL HPDI water was added, and the solution was shaken for a few seconds followed by the addition of a tea stained HAP disk. The disk was removed at 10 minutes and rinsed with HPDI water. […] 1.3 mg of potassium ferrate(VI) added and mixed into the solution. […] 1.4 mg of potassium ferrate(VI) was added to the disk surface and mixed gently. […] The reaction was allowed to continue for 5 minutes. […] The disk was rinsed several times with HPDI water. 100 μL of pH 7 HEPA buffer was pipetted onto the disk surface and allowed to react for 5 minutes. […] 1 mg of potassium ferrate(VI) was added and mixed into the liquid.

stable to storage [1]: at least 82 days
Substance: potassium ferrate(VI)
L* (lightness/darkness) [2]: 103.4
a* (blue/red) [2]: −2.2
appearance of disk after treatment [2]: very slight yellow tint
b* (yellow/green) [2]: 0.5
reflectance of visible light at 450 nm [2]: 105.246
reflectance of visible light at 750 nm [2]: 102.793
ΔE (versus tea stain) [2]: 20.34
L* (lightness/darkness) [3]: 103.5
a* (blue/red) [3]: −1.9
appearance of disk after treatment [3]: All stains were removed
b* (yellow/green) [3]: −3.1
reflectance of visible light at 450 nm [3]: 111.244
reflectance of visible light at 750 nm [3]: 103.795
ΔE (grape juice stain) [3]: 6.10
L* (lightness/darkness) [4]: 101.9
a* (blue/red) [4]: −2.1
appearance of disk after treatment [4]: All stains were removed
b* (yellow/green) [4]: −2.8
reflectance of visible light at 450 nm [4]: 106.774
reflectance of visible light at 750 nm [4]: 99.233
ΔE (coffee stain) [4]: 13.57
